This is an account of results in patent publication EP2960339A1, “Method and kit for the identification of glycosyl transferase substrates” (Technische Universität München, priority 2014, dated 2015).

“And” between values parts separate entries of the source, which are not always exact repeats. Identical values can stand only once.

What all share (type): biochemical
Experiment [1] addresses T1, VvGT14a (Vitis vinifera, UniProt F6H0R6). The following applies: for Km: monoterpenols at constant UDP-glucose […], UDP-glucose at fixed geraniol 100 µM, Tris-HCl pH 8.5, 30 °C; for kcat: pH 8.5.
For experiment [2], the target named is T1, VvGT14a. The experiment in a line: Substrate screening, radiochemical activity assay with UDP-[14C]glucose. The following applies: for conversion of putative substrate (in words): substrate screening, Figure 3. As for the experimental part:
(§1) In the initial screening, each reaction mixture (200 µL in total) contained Tris-HCl buffer (100 mM, pH 8, 10 mM 2-mercaptoethanol), 37 pmol UDP-[^14C]glucose (0.01 µCi, Biotrend, Köln, Germany), substrate (50 µL of a 1 mg/mL stock solution) and purified protein (0.5-0.8 µg/µL). The reaction mixture was incubated at 30 °C for 18.5 hours. The assays were stopped by adding 1 µL 24% trichloroacetic acid and extracted with 500 µL water-saturated 1-butanol. The organic phase was mixed with 2 mL Pro Flow P+ cocktail (Meridian Biotechnologies Ltd., Epsom, UK) and radioactivity was determined by liquid scintillation counting (LSC, Tri-Carb 2800TR, Perkin Elmer, Waltham MA, USA). Additionally, negative controls without substrate were performed.
(§2) After determining the optimal conditions for the best substrate of each gene, the substrate screening was repeated under these conditions.
(§3) The alleles of VvGT14a-c, 15a-c and 16 were isolated from V. vinifera cultivars and cloned in the expression vector pGEX-4T-1. The recombinant proteins were expressed with an N-terminal GST-tag, affinity purified and verified by SDS-PAGE and Western Blot using GST-specific antibody. Enzyme activity studies were performed with UDP-[^14C]glucose and various putative substrates (terpenols, flavonoids and different mono-alcohols) that are known to be glycosidically bound and present in grapes (Gunata et al., 1988).

The target of experiment [3] is T1, VvGT14a. Put plainly: Enantioselectivity by chiral phase SPME-GC-MS after hydrolysis of the formed glucoside. The following applies: racemic substrate, prolonged incubation (24 h), aglycone liberated by hydrolysis. The procedure:
(§4) To determine the enantioselectivity of VvGT14 and VvGT15 the enantiomeric ratio of glucosidically bound citronellol and linalool was determined by enantioselective GC-MS. Following the incubation, residual citronellol and linalool were completely removed by extraction with dichloromethane. Citronellyl ß-D-glucoside which remained in the aqueous phase was hydrolyzed by HCl (2 mL, 0.1 M, pH 1) for one hour at 100 °C to release citronellol (Skouroumounis and Sefton, 2000). In case of linalyl ß-D-glucoside an enzymatic hydrolysis (AR 2000, citric acid buffer pH 4, 24 h) was applied due to the instability of linalool in acid solutions (Williams et al., 1982). […] After hydrolysis, citronellol and linalool were analyzed by SPME-GC-MS as described above.
(§5) GC-MS analysis was performed with a Varian GC-450 coupled to a Varian MS-240 ion-trap employing a Phenomenex Zebron ZB-WAXplus column (30 m x 0.25 mm x 0.25 µm, Aschaffenburg, Germany). Helium flow rate was 1 mL/min. The analysis was carried out in split mode (liquid injections) or splitless mode (SPME measurements) with 220 °C injector temperature. EI (electron impact ionization)-MS spectra were recorded from m/z 40 to 300 (ionization energy 70 eV; trap temperature 170 °C). The oven temperature program was 60 °C (3 min), 10 °C/min up to 250 °C (5 min). In case of SPME measurements, liberated aglycones were isolated for 10 min at 60°C using a fiber coated with a 85 µm film of polyacrylate (SUPELCO, Bellefonte, USA). After extraction the SPME fiber was desorbed for 10 min at 250°C in the injection port of the GC-MS system and the column oven program was carried out as described above. Enantioselective GC-MS analysis was performed with a Varian GC-450 coupled to a Varian MS-240 ion-trap. The column was a DiAcß (heptakis-(2,3-di-O-acetyl-6-O-tert.-butyldimethylsilyl)-ß-cyclodextrin), 26 m x 0.32 mm i.d. with a 0.1 µm film. […] GC-MS measurements were recorded in full scan mode. Selected ion monitoring (SIM) mode was used for quantification.

For experiment [4], the target named is T1, VvGT14a. The experiment in a line: Activity based profiling using a physiologic aglycone library (radio-TLC, GC-MS). The following applies: Figure 7. As for the experimental part: For the preparation of aglycone extracts 50 g (fresh weight) grape skins or 4 g (fresh weight) inflorescences of Gewurztraminer Gm 11-18 were ground to a fine powder in liquid nitrogen. The isolation of glycosides was carried out as described above (see metabolite analysis). The methanolic fraction, which was obtained after SPE, was enzymatically hydrolysed. Therefore, the dried sample was dissolved in citric-acid buffer (0.1 M, pH 4), 50 mg AR 2000 (an enzyme preparation with glucosidase activity prepared from Aspergillus niger; DSM Food Specialties Beverage Ingredients, Delft, Netherlands) was added and incubated for 24 h with exclusion of light. The liberated aglycones were extracted by 20 mL methyl-tert-butyl ether and the organic phase was reduced to 1000µL using a gentle stream of nitrogen.
Aliquots of this aglycone extract were incubated with UDP-glucose and various VvGT-enzymes. Optimum conditions at 30 °C for 24 hours were applied. Each solution contained 100 µL purified enzyme, 100-150 µL Tris-HCl buffer (100 mM, pH7.5 or 8.5, 10 mM 2-mercaptoethanol), 37 pmol UDP-[^14C]glucose (0.01 µCi) and 50-100 µL extract (dissolved in methyl-tert-butylether). The buffer was mixed with the extract and the organic solvent was gently vaporized with nitrogen. The missing volume was adjusted with buffer before the enzyme was added. The reaction was stopped by adding 1 µL 24% trichloroacetic acid and extracted with 500 µL ethyl acetate. After termination of the reaction free aglycones, which were not converted by VvGT14 and VvGT15, were measured via SPME-(Solid Phase Microextraction)-GC-MS. These residual, free aglycones were completely removed by extraction with dichloromethane. Enzymatically formed glucosides were extracted by ethyl acetate, which was removed under nitrogen. The residue was dissolved in methanol and analyzed by LC-MS to detect the generated monoterpenol glucosides. Enzymatic hydrolysis of the glucosides was performed using AR 2000 and 2 mL citric-acid-buffer. After hydrolysis, a 100 µL aliquot was used to detect volatile aglycones via SPME-GC-MS. The remaining solution was extracted with methyl-tert-butyl ether and reduced under nitrogen to approximately 200 µL. One µL were measured by GC-MS via liquid injection.
Assays containing UDP-[^14C]glucose and aglycone libraries or substrates were performed as described above and subsequently extracted with 500 µL ethyl acetate. The organic solvent was vaporized and the pellet was re-suspended in 10 µL methanol and was applied on Silica Gel 60 F254 plates (Merck, Darmstadt, Germany). The dried plates were developed in a solvent system chloroform:acetic acid:water (50/45/5, v:v:v). Plates were dried and analyzed by digital autoradiograph (digital autoradiograph, EG&G Berthold, Wildbad, Germany).
An aglycone library of the two tissues was obtained by enzymatic hydrolysis of the glycosides followed by liquid-liquid extraction of the released alcohols and acids. […] The formed glycosides were separated by thin layer chromatography (TLC) and visualized by radiodetection whereas identification could be achieved by LC-MS and NMR analysis and, after hydrolysis, by GC-MS and LC-MS (Figure 6).

Experiment [5] has as its target T2, VvGT15a (Vitis vinifera, UniProt F6GUW0). The procedure:
(§6) The measurements were performed under the following conditions. […] The assay of VvGT15a-c was performed at 30 °C using a Tris-HCl buffer (100 mM, 10 mM 2-mercaptoethanol, pH 7.5) and 10 min (VvGT15c) or 30 min (VvGT15a-b) of incubation for the best substrates. The amount of the purified enzyme and the incubation time were adapted depending on the counting sensibility. The reaction was stopped by adding 1 µL 24% trichloroacetic acid and glucosides were extracted with 100 µL ethyl acetate. Radioactivity was determined by LSC.
(§7) The KM- and vmax-values were calculated from Lineweaver-Burk plots, Hanes-Woolf plots and non-linear fitting of the experimental data.

Experiment [6] has as its target T3, VvGT15b (Vitis vinifera, UniProt F6GUW0). As for the experimental part:
as §6, §7

Experiment [7] addresses T4, VvGT15c (Vitis vinifera, UniProt F6GUW0). The procedure:
as §6, §7

The target in experiment [8] is T5, VvGT16 (Vitis vinifera, UniProt F6HTJ4). The experiment in a line: Kinetics (KM, kcat) with UDP-[14C]glucose, liquid scintillation counting. Conditions: monoterpenes at constant UDP-glucose 512.5 µM; UDP-glucose at fixed geraniol 1.25 mM; Tris-HCl pH 8.5, 30 °C.
T5 sequence (F6HTJ4 entry or part of it): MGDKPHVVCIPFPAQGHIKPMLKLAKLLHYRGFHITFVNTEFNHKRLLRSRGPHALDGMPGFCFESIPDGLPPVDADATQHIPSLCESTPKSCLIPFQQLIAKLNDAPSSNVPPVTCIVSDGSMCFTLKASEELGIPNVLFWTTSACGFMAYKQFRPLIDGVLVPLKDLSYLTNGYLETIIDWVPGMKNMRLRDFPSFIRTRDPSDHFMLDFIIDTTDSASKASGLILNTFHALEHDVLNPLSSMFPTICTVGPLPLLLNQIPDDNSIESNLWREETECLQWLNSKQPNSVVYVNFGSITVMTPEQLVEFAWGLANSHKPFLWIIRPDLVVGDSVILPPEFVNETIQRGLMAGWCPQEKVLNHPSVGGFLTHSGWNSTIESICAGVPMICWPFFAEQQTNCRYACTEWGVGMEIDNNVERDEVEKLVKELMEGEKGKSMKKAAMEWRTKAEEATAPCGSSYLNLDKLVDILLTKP
Experiment [9] has as its target T2, VvGT15a. The experiment in a line: Substrate screening, radiochemical activity assay with UDP-[14C]glucose. Conditions: for conversion of putative substrate (in words): substrate screening, Figure 3. The procedure: as §1, §2, §3
Experiment [10] concerns the target T3, VvGT15b. Described as above. Conditions: for conversion of putative substrate (in words): substrate screening, Figure 3. The procedure: as §1, §2, §3
The target in experiment [11] is T4, VvGT15c. The description is as above. Conditions: for conversion of putative substrate (in words): substrate screening, Figure 3. The procedure:
as §1, §2, §3

Experiment [12] addresses T5, VvGT16. Described as above. As for the experimental part:
as §1, §2, §3

Experiment [13] deals with T2, VvGT15a. The experiment in a line: Enantioselectivity by chiral phase SPME-GC-MS after hydrolysis of the formed glucoside. Conditions: racemic substrate, prolonged incubation (24 h), aglycone liberated by acid hydrolysis. The procedure:
as §4, §5

Where [14] appears, read: substrates at fixed UDP-glucose 833 µM, UDP-glucose at constant geraniol 1.25 mM, Tris-HCl pH 7.5, 30 °C.
Where [15] appears, read: relative to conversion of geraniol (100 %), extractable radioactivity.
The mark [16] stands for this setting: citronellol enantiomers, Figure 12, highest level of extractable radioactivity = 100 %.

T1 sequence (F6H0R6 entry or part of it): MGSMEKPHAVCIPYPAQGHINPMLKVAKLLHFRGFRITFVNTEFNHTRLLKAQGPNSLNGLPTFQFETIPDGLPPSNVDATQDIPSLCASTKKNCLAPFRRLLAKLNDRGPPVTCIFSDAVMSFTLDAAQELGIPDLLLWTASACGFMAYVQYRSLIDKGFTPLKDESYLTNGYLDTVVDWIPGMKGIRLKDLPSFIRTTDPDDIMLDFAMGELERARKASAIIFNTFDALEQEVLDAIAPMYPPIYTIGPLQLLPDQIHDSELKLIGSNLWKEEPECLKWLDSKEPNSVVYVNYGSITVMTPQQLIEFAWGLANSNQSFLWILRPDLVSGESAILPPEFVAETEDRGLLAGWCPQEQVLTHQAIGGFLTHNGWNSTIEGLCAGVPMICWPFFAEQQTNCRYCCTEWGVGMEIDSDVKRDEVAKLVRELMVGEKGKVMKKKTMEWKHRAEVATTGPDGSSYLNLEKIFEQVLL
T2 sequence (F6GUW0 entry or part of it): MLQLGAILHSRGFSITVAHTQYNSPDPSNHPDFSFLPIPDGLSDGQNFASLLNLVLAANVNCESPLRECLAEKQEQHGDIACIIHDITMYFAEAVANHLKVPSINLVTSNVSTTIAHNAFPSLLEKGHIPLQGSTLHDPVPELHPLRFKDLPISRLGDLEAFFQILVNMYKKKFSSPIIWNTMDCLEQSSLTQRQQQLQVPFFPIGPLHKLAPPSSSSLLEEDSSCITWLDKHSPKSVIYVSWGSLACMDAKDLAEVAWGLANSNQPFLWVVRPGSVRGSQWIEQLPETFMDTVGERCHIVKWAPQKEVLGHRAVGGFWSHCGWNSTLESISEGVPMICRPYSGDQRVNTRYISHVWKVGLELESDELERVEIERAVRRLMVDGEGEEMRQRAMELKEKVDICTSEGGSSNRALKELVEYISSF
T4 sequence (F6GUW0 entry or part of it): as above
T3 sequence (F6GUW0 entry or part of it): as above

`C=CC(C)(O)CCC=C(C)C` (racemic) [linalool (rac), (R,S)-3,7-dimethyl-1,6-octadien-3-ol]: on VvGT14a [1], the Michaelis constant (Km) came to 47 ± 0.1 µM and the kcat came out at 0.0003 s⁻¹. Also, the “conversion of putative substrate (in words)” value (shortened to “conversion”) on VvGT14a [2] is listed as “catalytic activity”. Further, the “enantiomeric preference (in words)” value on VvGT14a [3] is “slight enrichment of the R-enantiomer”. Moreover, the “aglycone liberated by enzymatic hydrolysis of the glucosides formed from the grape skin aglycone library (in words)” value (from here on “aglycone liberated”) on VvGT14a [4] was “remarkable quantities”.

For the compound `CC(C)=CCC/C(C)=C/CO` [Geraniol, (E)-3,7-dimethyl-2,6-octadien-1-ol], the Michaelis constant (Km) on VvGT14a [1] turned out to be 9 ± 1.2 µM; on VvGT15a [5] (setting [14]), 63 µM; on VvGT15b [6] (setting [14]), 81 µM; on VvGT15c [7] (setting [14]), 43 µM; on VvGT16 [8], 355 ± 14 µM. Besides, the kcat at VvGT14a [1] was 0.02 s⁻¹; on VvGT15a [5] (pH 7.5) it was 0.12 s⁻¹; on VvGT15b [6] (pH 7.5), 0.1 s⁻¹ and 0.10 s⁻¹; on VvGT15c [7] (pH 7.5), 0.17 s⁻¹; at VvGT16 [8], 0.015 s⁻¹. In addition, the “Michaelis constant, fold greater than the KM values for nerol and S-citronellol” value on VvGT15a [5], on VvGT15b [6] and at VvGT15c [7] was “about 2 fold” in each case. For the same compound, the relative specific activity at VvGT14a [2] (setting [15]) is 100%; at VvGT15a [9] (setting [15]) it was 100%; on VvGT15b [10] (setting [15]), 100%; at VvGT15c [11] (setting [15]) it was 100%; on VvGT16 [12] (relative to conversion of benzyl alcohol (100 %), extractable radioactivity), over 80%. The “conversion” value on VvGT14a [2] is “preferred”; at VvGT15a [9], “glucosylated primarily”; at VvGT15b [10], “glucosylated primarily”; at VvGT15c [11] it was “glucosylated primarily”. The “aglycone liberated” value on VvGT14a [4] was “substantial amount”.

With `CC(C)=CCCC(C)CCO` (racemic) [citronellol (rac), (R,S)-3,7-dimethyl-6-octen-1-ol], the Km at VvGT14a [1] is 9 ± 0.3 µM. Moreover, the kcat on VvGT14a [1] was found to be 0.02 s⁻¹. The relative specific activity at VvGT14a [2] (setting [16]) and on VvGT15c [11] (setting [16]) was 100% in each case. Moreover, the “conversion” value is given as “preferred” at VvGT14a [2]; “glucosylated primarily” on VvGT15a [9]; “glucosylated primarily” at VvGT15b [10]; “glucosylated primarily” on VvGT15c [11]; “transformed” at VvGT16 [12] (substrate screening, Figure 3). For the same compound, the “enantiomeric preference (in words)” value at VvGT14a [3] and at VvGT15a [13] was “no enantio-discrimination” throughout. Further, the “aglycone liberated” value at VvGT14a [4] is on record as “remarkable quantities”.

By Km is commonly meant the substrate concentration at which the rate is half of its maximum. Usually kcat stands for the number of substrate molecules converted per active site and unit of time at saturation.
